“And” between values parts separate entries of the source, which are not always exact repeats. Equal entries are not always repeated.
How the values were obtained:
healthy adults [1] = assay: Echocardiography (core laboratory) pharmacodynamics, SAD cohorts; type: in vivo, human
Experimental: (§1) For PD assessments of LVEF, echocardiograms for the SAD and MAD cohorts were interpreted by the echocardiography core laboratory and used for all data analysis and dose-level review decisions, and immediate local interpretation of the echocardiograms was performed for safety monitoring. […] Echocardiograms on day 3 (48 hours after dosing) were obtained only if the 24-hour LVEF had not returned to near or above baseline, as determined by the investigator. In the MAD cohorts, echocardiograms were obtained on day -1; predose on day 1; at 1.5 hours postdose on days 2, 4, and 9; and at 1.5, 24, and 72 hours postdose on day 14 (for the 5-mg and 10-mg cohorts) or on day 17 (for the 7.5-mg cohort). Echocardiograms were obtained 3 days after the last dose (on day 17 or 20) only if the participant’s prior LVEF was not near or above baseline, as determined by the investigator.
(§2) Using echocardiography instrumentation certified for clinical use, echocardiographic images were obtained from standard views based on American Society of Echocardiography recommendations for chamber quantification.[19] To obtain the LVEF, the endocardial borders of 3 different cardiac cycles were traced at both end diastole and end systole from the apical 4- and 2-chamber views and LV end-diastolic volume (LVEDV) and LV end-systolic volume (LVESV), calculated using the Simpson’s method of discs algorithm. Ejection fraction was calculated in the standard manner: LVEF = (LVEDV − LVESV)/LVEDV. The intraobserver variability (coefficient of variation) for LVEF was 8%.
(§3) All participants who received ≥1 dose of the study drug and had ≥1 predose and ≥1 postdose echocardiographic measurements were included in the PD analysis set. […] Descriptive statistics of the echocardiographic parameters were generated using SAS, version 9.3 or higher. Dose-response analysis was performed using analysis of covariance to identify the least-squares mean difference (aficamten minus placebo), as described in the Supplemental Appendix. Analyses of concentration “bin” and exposure-response were also performed using analysis of covariance, as described in the Supplemental Appendix. SAS PROC MIXED was used for all comparative analyses.
(§4) Statistical A nalysis of P harmacodynamic (PD) P aram eters
(§5) To analyze the impact of drug dose on echocardiographic parameters in the SAD and MAD
(§6) cohorts, an inferential analysis was conducted on t he PD analysis set using linear mixed models
(§7) for rep eated -measur es an alysis of covarian ce ( AN COVA). The A NCOVA used baseline valu e as
(§8) a covariate, included treatment, time-point, and time-point-by- treatment interaction as fixed
(§9) effects, and ch ange f rom baseline as the d ependent variable. Th e unstructur ed varian ce-
(§10) covarian ce structu re w as used, and the model acco unted for the time- point r epeated m easur es.
(§11) The ANCOVA analysis was conducted separately for each study part and f or each PD p aram eter .
(§12) The least-squares means, the difference in least squares means (active minus placebo), and the
(§13) associated 2-sided 95% CIs were presented for each comparison.
(§14) Concentration bin analysis
(§15) An additional inferential analysis was performed i n the SAD and MAD cohorts , to evaluate the
(§16) analysis set. A concentrat ion bin ANCOVA was conducted using linear mi xed models for
(§17) repeat ed-measures an aly ses with concentr ation bin group as a fix ed ef fect, baseline PD
(§18) parameters as a covari ate, change f rom baseline as the dependent v ariable, and a random
(§19) intercept to adjust for the repeat ed measures. The unstructured variance-co variance structur e was
(§20) used.Plasma concentr ations of aficamten wer e paired with coincident PD parameters. The
(§21) ANCOVA compared the change in PD parameters between each bin versus the pooled placebo
group. The least-squ ares means, the differen ce in l east squares m eans (bin group minus placebo),
and the associat ed 2-sided 95% CIs were pres ented for each comparison. The ANCOVA analysis

healthy adults [2] = assay: Echocardiography (core laboratory) pharmacodynamics, MAD cohorts; type: in vivo, human
Experimental: The MAD cohorts also used a randomized, double-blind, placebo-controlled, sequential design.
as §1, §2, §3, §4, §5, §6, §7, §8, §9, §10, §11, §12, §13, §14, §15, §16, §17, §18, §19, §20, §21
group. The least-squ ares means, the differen ce in l east squares m eans (bin group minus placebo), […]

[3] = SAD 50 mg (n = 11), […] postdose

For `CCc1nc(-c2ccc3c(c2)CC[C@H]3NC(=O)c2cnn(C)c2)no1` [Aficamten], which “Participants with absolute reduction in LVEF of ≥5% from baseline” value (healthy adults [1]; SAD 1 mg) is on record?
Its value is “no participants”.

And the “Participants with absolute reduction in LVEF of ≥5% from baseline” value (healthy adults [1]; SAD 3 mg, 1 of 6)?
Its value is 17%.

And the “Participants with absolute reduction in LVEF of ≥5% from baseline” value (healthy adults [1]; SAD 10 mg)?
Its value is “no participants”.

And the “Participants with absolute reduction in LVEF of ≥5% from baseline” value (healthy adults [1]; SAD 25 mg)?
Its value is “no participants”.

And the “Participants with absolute reduction in LVEF of ≥10%” value (healthy adults [1]; SAD 40 mg, 1 of 6)?
The value was 17%.

What about the “Participants with absolute reduction in LVEF of ≥5% from baseline” value (healthy adults [1]; SAD 40 mg, 2 of 6) of the same compound?
Its value is 33%.

What about the “A (peak A wave velocity), mean” value (healthy adults [1]; [3]) of the same compound?
Its value is 54.5 cm/s.

What about the “A (peak A wave velocity), mean change from baseline” value (healthy adults [1]; [3]) of the same compound?
The value was 2.5 cm/s.

What about the “E (peak E wave velocity), mean” value (healthy adults [1]; [3]) of the same compound?
The value was 64.0 cm/s.

And the “E (peak E wave velocity), mean change from baseline” value (healthy adults [1]; [3])?
The value was -2.7 cm/s.

What about the “Heart rate, mean” value (healthy adults [1]; [3]) of the same compound?
The value was 62.3 bpm.

And the “Heart rate, mean change from baseline” value (healthy adults [1]; [3])?
The value was 0.5 bpm.

What about the “IVCT, mean” value (healthy adults [1]; [3]) of the same compound?
Its value is 42.6 ms.

What about the “IVCT, mean change from baseline” value (healthy adults [1]; [3]) of the same compound?
Its value is 0.4 ms.

And the “IVRT, mean” value (healthy adults [1]; [3])?
The value was 69.3 ms.

What about the “IVRT, mean change from baseline” value (healthy adults [1]; [3]) of the same compound?
Its value is 0.5 ms.

And the “LAV, mean” value (healthy adults [1]; [3])?
The value was 35.7 mL.

What about the “LAV, mean change from baseline” value (healthy adults [1]; [3]) of the same compound?
The value was 0.0 mL.

What about the “LV CO, mean” value (healthy adults [1]; [3]) of the same compound?
The value was 3240 mL.

What about the “LV CO, mean change from baseline” value (healthy adults [1]; [3]) of the same compound?
Its value is -346 mL.

And the “LV EDV, mean” value (healthy adults [1]; [3])?
The value was 99.8 mL.

And the “LV EDV, mean change from baseline” value (healthy adults [1]; [3])?
Its value is 6.6 mL.

What about the “LV ESV, mean” value (healthy adults [1]; [3]) of the same compound?
The value was 39.7 mL.

What about the “LV ESV, mean change from baseline” value (healthy adults [1]; [3]) of the same compound?
The value was 8.1 mL.

What about the “LV ET, mean” value (healthy adults [1]; [3]) of the same compound?
The value was 328 ms.

And the “LV SV, mean” value (healthy adults [1]; [3])?
The value was 52.6 mL.

And the “LV SV, mean change from baseline” value (healthy adults [1]; [3])?
The value was -6.2 mL.

And the “LVEF, mean” value (healthy adults [1]; [3])?
The value was 60.5%.

What about the “LVEF, mean change from baseline” value (healthy adults [1]; [3]) of the same compound?
Its value is -5.8%.

What about the “e' lateral, mean” value (healthy adults [1]; [3]) of the same compound?
The value was 10.2 cm/s.

What about the “e' lateral, mean change from baseline” value (healthy adults [1]; [3]) of the same compound?
Its value is -1.3 cm/s.

And the “Participants with reduction in LVEF to <50%” value (healthy adults [1]; SAD 50 mg, 2 of 11, core laboratory)?
The value was 18%.

What about the “Participants with absolute reduction in LVEF of ≥5% from baseline” value (healthy adults [1]; SAD 50 mg, 7 of 11) of the same compound?
Its value is 64%.

And the “Mean maximum reduction in LVEF from baseline” value (healthy adults [1]; SAD 50 mg, […] postdose)?
Its value is 5.8%.

What about the “Reduction in LVEF, placebo corrected least-squares mean difference” value (healthy adults [1]; SAD 50 mg, […] postdose) of the same compound?
Its value is 5.5%.

And the “LVEF of the individual participants with LVEF <50%” value (healthy adults [1]; SAD 50 mg, per core laboratory assessment)?
Its value is 48.2% and 45.5%.

And the “Participants with absolute reduction in LVEF of ≥5% from baseline” value (healthy adults [1]; SAD 75 mg, 1 of 1)?
The value was 100%.

What about the “Participants with reduction in LVEF to <50%” value (healthy adults [1]; SAD 75 mg, 1 of 1, core laboratory) of the same compound?
Its value is 100%.

And the “Participants with absolute reduction in LVEF of ≥10%” value (healthy adults [1]; SAD 75 mg, 1 participant)?
The value was 100%.

And the “LVEF of the participant (only participant with LVEF <45%)” value (healthy adults [1]; SAD 75 mg, core laboratory)?
Its value is under 45%.

What about the “Relationship of LVEF to plasma concentration” value (healthy adults [1]; SAD cohorts, highest concentration bin 122-524 ng/mL P < 0.001, concentration-slope analysis P = 0.003) of the same compound?
The value was “statistically significant decrease”.

And the “Time for reversal of decreases in LVEF to <50%” value (healthy adults [1]; following single doses)?
Its value is at most 6 h.

And the “Time for LVEF to return to baseline” value (healthy adults [1]; participants whose LVEFs fell below 50%)?
Its value is at most 24 h.

And the “Time after dosing at which LVEF <50% was noted” value (healthy adults [1]; single 50 or 75 mg)?
The value was “approximately 1.5 hours”.

And the “Participants with absolute reduction in LVEF of ≥5% from baseline” value (healthy adults [2]; MAD 7.5 mg once daily, 1 of 6)?
The value was 17%.

And the “Participants with absolute reduction in LVEF of ≥10% from baseline” value (healthy adults [2]; MAD 10 mg once daily)?
Its value is 33%.

What about the “Participants with reduction in LVEF ≥10%” value (healthy adults [2]; MAD 10 mg once daily) of the same compound?
The value was 2 participants.

What about the “Participants who met the stopping criteria based on echocardiography results” value (healthy adults [2]; MAD 10 mg once daily for 14 days) of the same compound?
The value was 2 participants.

And the “Placebo-corrected reduction in LVEF (least-squares mean difference)” value (healthy adults [2]; MAD 10 mg once daily for 14 days, […] postdose on day 14, P = 0.21)?
Its value is 3.2%.

What about the “Participants with absolute reduction in LVEF of ≥5% from baseline” value (healthy adults [2]; MAD 10 mg once daily, 2 of 6) of the same compound?
Its value is 33%.

And the “Largest mean reduction in LVEF from baseline” value (healthy adults [2]; MAD 10 mg, […] postdose on day 14)?
Its value is 5.0%.

What about the “Suppression of LVEF in most participants” value (healthy adults [2]; MAD cohorts, plasma concentrations of ≤180 ng/mL) of the same compound?
The value was “minimal suppression of LVEF”.

What about the “Relationship of LVEF to plasma concentration” value (healthy adults [2]; MAD cohorts, bin concentration analysis or linear regression analysis) of the same compound?
The value was “did not reach statistical significance”.

And the “Reduction in LVEF to <50%” value (healthy adults [2]; any of the MAD cohorts, per core laboratory assessment)?
Its value is “not observed”.

Source: PMC9436819 (JACC: Basic to Translational Science, 2022)
